Measured values reported in US12016906B2, “Pharmaceutical composition for anaemia” (Frimline Private Limited, priority 2018, dated 2024).

Key:
Format in all cases: in vivo, male Wistar rats (Rat Rattus)
[1] = tested on: Iron deficient Diet (IDD) induced anaemia in rats; test: Hb level in IDD induced anaemia in rats; set-up: Hemoglobin % Change compared to Disease control: concentration or dose not given beside the values; details: for Hemoglobin Pre-treatment: Day 35, before treatment; for Hemoglobin Pre-treatment / Hemoglobin Post-treatment / Hemoglobin % Change compared to Disease control: IDD rats; for Hemoglobin Post-treatment: Day 98, after 9 weeks of treatment p.o.; for Hemoglobin % Change compared to Disease control: Day 98
Experimental: (§1) Screening of pharmaceutical composition/formulation comprising combination of Lactoferrin+Guanosine Nucleotide or a pharmaceutically acceptable salt thereof with or without optional ingredients against Iron deficient Diet (IDD) induced anaemia in rats. For this study different parameters like Hb Level, Hematocrit level, Serum Iron level, Ferroportin level, Serum Ferritin level, Hepcidin level and IL-6 Level were evaluated. The following trials were carried out by taking reference from Wang Xl, Liu S, Xu H, Yan W, Effects of recombinant human lactoferrin on improving the iron status of IDA. Wei Sheng Yan Jiu.
(§2) 72 male Wistar rats (Rat Rattus) (6 per group) were maintained in animal house in a light/dark atmosphere based on a 12 hour cycle having temperature and relative humidity in the range of 22±3° C. and 30-70% respectively. To maintain the appropriate conditions, temperature and relative humidity were recorded three times daily. All animals were acclimatized for a minimum period of five days. Animals were maintained in the test setup for minimum 30 minutes once during the acclimatization period to reduce the stress. Animals were weighed on the day of receipt and observed daily for abnormalities if any. Detailed records of acclimatization were also maintained. Rats were housed 6 per cage in clean, sterilized Polypropylene cages. During complete experiment, animals were supplied with the standard certified rat pellet feed (manufactured by Keval sales corporation, Vadodara) and drinking water treated by the reverse osmosis ad libitum. Analysis reports for microbial load and contaminants in feed and water and nutrient content of feed were also retained.
(§3) In order to evaluate the activity against IDD induced anaemia, seventy two (72) rats were screened and divided in to twelve groups. For a comparative analysis, groups were divided as normal control (Group 1), disease control (Group 2), treatment groups with individual components (Group 3, Group 4, Group 5, Group 6 and Group 7 as Lactoferrin, Disodium Guanosine monophosphate (GMP), Guanosine diphosphate (GDP), Guanosine triphosphate (GTP) and Vitamin C respectively), test composition/formulation of the present invention (Group 8 as combination of Lactoferrin Disodium GMP, Group 9 as combination of Lactoferrin GDP, Group 10 as combination of Lactoferrin+GTP, […] as combination of Lactoferrin+Disodium GMP+Vitamin C) and reference standard drug (Group 12). Table 1 provides the details of the various groups and treatments conducted in the trial wherein group no. G3 to G12 are treatment groups.
After 3 weeks of respective dietary intervention, the level of Hemoglobin was determined in each animal.
(§4) After 5 weeks (35 days) of respective dietary intervention, once again hemoglobin level, HCT % level and serum iron level were analyzed and then, respective drug treatment was started with continuous administration of Iron deficient diets in all groups as mentioned above in Table 1.
(§5) After 9 weeks of respective drug treatment (total after 14 weeks from start of the study—98 days), various biochemical parameters were measured to evaluate the effect of respective individual and combination therapy on iron deficient anaemia model (G3 to G12).
(§6) • A. Clinical observations (Daily) • B. Mortality (Daily) • C. Body weight (Initially and then weekly till the end of study) • D. After 3 and 5 weeks of Iron deficient diet supplement • (i) Hematological parameters (RBC count, Hb Level, Hematocrit % MCV, MCH and MCHC). • (ii) Serum Iron Level. • E. At the end of 14 weeks of study • (i) Hematological parameters (RBC count, Hb Level, Hematocrit %, MCV, MCH and MCHC). • (ii) Biochemical parameters (Serum Iron level, Ferroportin level, Serum Ferritin level, Hepcidin level, IL-6 level).

[2] = tested on: Iron deficient Diet (IDD) induced anaemia in rats; test: Hematocrit % level in IDD induced anaemia in rats; set-up: Hematocrit % Change compared to Disease control: concentration or dose not given beside the values; details: for Hematocrit Pre-treatment: Day 35, before treatment; for Hematocrit Pre-treatment / Hematocrit Post-treatment / Hematocrit % Change compared to Disease control: IDD rats; for Hematocrit Post-treatment: Day 98, after 9 weeks of treatment p.o.; for Hematocrit % Change compared to Disease control: Day 98
Experimental: as §1, with “Jiu. 2012 January; 41(1):13-7, 22 and Nora M. El-Sheikh, the Protective Effect of Soybean and Thyme on Iron Deficiency Anemia in Rats, the Egyptian Journal of Hospital Medicine (2008) Vol., 33: 510-520 as available.” for “Jiu.”
as §2, §3
(§7) Group nos. 2 to 12 animals under consideration were administered IDD (3 mg Fe/Kg of diet) for the period of 3 weeks, while group 1 animal received Normal pellet diet (35 mg Fe/Kg of diet).
(§8) After 3 weeks of respective dietary intervention, the level of Hemoglobin was determined in each animal. Looking at low increase in hemoglobin. Hematocrit % (HCT %) level and serum iron level, further dietary intervention was continued for additional two (2) weeks.
as §4, §5
(§9) • A. Clinical observations (Daily) • B. Mortality (Daily) • C. […]

[3] = tested on: Iron deficient Diet (IDD) induced anaemia in rats; test: Serum iron level in IDD induced anaemia in rats; set-up: Serum IRON % Change compared to Disease control: concentration or dose not given beside the values; details: for Serum IRON Pre-treatment: Day 35, before treatment; for Serum IRON Pre-treatment / Serum IRON Post-treatment / Serum IRON % Change compared to Disease control: IDD rats; for Serum IRON Post-treatment: Day 98, after 9 weeks of treatment p.o.; for Serum IRON % Change compared to Disease control: Day 98
Experimental: as §1, with “Jiu. 2012 January; 41(1):13-7, 22 and Nora M. El-Sheikh, the Protective Effect of Soybean and Thyme on Iron Deficiency Anemia in Rats, the Egyptian Journal of Hospital Medicine (2008) Vol., 33: 510-520 as available.” for “Jiu.”
as §2, §3, §7, §8, §4, §5, §9

[4] = tested on: Iron deficient Diet (IDD) induced anaemia in rats; test: Ferroportin level in IDD induced anaemia in rats; set-up: Ferroportin % Change compared to Disease control: concentration or dose not given beside the values; details: for Ferroportin Post-treatment: Day 98, after 9 weeks of treatment p.o.; for Ferroportin Post-treatment / Ferroportin % Change compared to Disease control: IDD rats; for Ferroportin % Change compared to Disease control: Day 98
Experimental: as §1, with “Jiu. 2012 January; 41(1):13-7, 22 and Nora M. El-Sheikh, the Protective Effect of Soybean and Thyme on Iron Deficiency Anemia in Rats, the Egyptian Journal of Hospital Medicine (2008) Vol., 33: 510-520 as available.” for “Jiu.”
as §2, §3, §7, §4, §5, §9

[5] = tested on: Iron deficient Diet (IDD) induced anaemia in rats; test: Serum ferritin level in IDD induced anaemia in rats; set-up: Ferritin % Change compared to Disease control: concentration or dose not given beside the values; details: for Ferritin Post-treatment: Day 98, after 9 weeks of treatment p.o.; for Ferritin Post-treatment / Ferritin % Change compared to Disease control: IDD rats; for Ferritin % Change compared to Disease control: Day 98
Experimental: as §1, with “Jiu. 2012 January; 41(1):13-7, 22 and Nora M. El-Sheikh, the Protective Effect of Soybean and Thyme on Iron Deficiency Anemia in Rats, the Egyptian Journal of Hospital Medicine (2008) Vol., 33: 510-520 as available.” for “Jiu.”
as §2, §3, §7, §4, §5, §9

[6] = tested on: Iron deficient Diet (IDD) induced anaemia in rats; test: Hepcidin level in IDD induced anaemia in rats; set-up: Hepcidin % Change compared to Disease control: concentration or dose not given beside the values; details: for Hepcidin Post-treatment: Day 98, after 9 weeks of treatment p.o.; for Hepcidin Post-treatment / Hepcidin % Change compared to Disease control: IDD rats; for Hepcidin % Change compared to Disease control: Day 98
Experimental: as §1, with “Jiu. 2012 January; 41(1):13-7, 22 and Nora M. El-Sheikh, the Protective Effect of Soybean and Thyme on Iron Deficiency Anemia in Rats, the Egyptian Journal of Hospital Medicine (2008) Vol., 33: 510-520 as available.” for “Jiu.”
as §2, §3, §7, §4, §5, §9

[7] = tested on: Iron deficient Diet (IDD) induced anaemia in rats; test: IL-6 level in IDD induced anaemia in rats; details: for IL-6 Post-treatment: Day 98, after 9 weeks of treatment p.o.; for IL-6 Post-treatment / IL-6 % Change compared to Disease control: IDD rats; for IL-6 % Change compared to Disease control: Day 98
Experimental: as §1, §2, §3, §4, §5
as §6, with “level). Statistical Analysis: One way ANOVA followed by Tuckey's test was performed and p value<0.05 is considered to be statistically significant. […] Hematology: (after 3 Weeks and 5 Weeks of Feed Intervention and after 9 Weeks of Treatment)” for “level).”

[8] = rats on iron deficient diet, after treatment for 9 weeks, compared to disease control group (G2)
[9] = rats on iron deficient diet, after treatment of 9 weeks, compared to disease control group (G2)

Compound | Hemoglobin Pre-treatment [1] | Hemoglobin Post-treatment [1] | Hemoglobin % Change compared to Disease control [1] | Hematocrit Pre-treatment [2] | Hematocrit Post-treatment [2] | Hematocrit % Change compared to Disease control [2] | Serum IRON Pre-treatment [3] | Serum IRON Post-treatment [3] | Serum IRON % Change compared to Disease control [3] | Ferroportin Post-treatment [4] | Ferroportin % Change compared to Disease control [4] | Ferritin Post-treatment [5] | Ferritin % Change compared to Disease control [5] | Hepcidin Post-treatment [6] | Hepcidin % Change compared to Disease control [6] | IL-6 Post-treatment [7] | IL-6 % Change compared to Disease control [7] | further results
Vit C | 8.28 g/dL | 9.22 g/dL | 41.5% | 35.64% | 37.24% | 44.9% | 2.76 ppm | 3.54 ppm | 32.7% | 3.1 ng/mL | 12.9% | 689 ng/mL | −6.9% | 4267 ng/mL | −3.0% | 63.4 pg/mL | 1.6% | 
Nc1nc2c(ncn2[C@@H]2O[C@H](COP(=O)(O)OP(=O)(O)O)[C@@H](O)[C@H]2O)c(=O)[nH]1 [GDP, Guanosine diphosphate] | 8.62 g/dL | 9.34 g/dL | 43.4% | 35.61% | 37.77% | 46.9% | 3.30 ppm | 3.99 ppm | 49.7% | 3.0 ng/mL | 11.1% | 702 ng/mL | −5.1% | 4351 ng/mL | −1.1% | 62.2 pg/mL | −0.3% | 
Nc1nc2c(ncn2[C@@H]2O[C@H](COP(=O)(O)OP(=O)(O)OP(=O)(O)O)[C@@H](O)[C@H]2O)c(=O)[nH]1 [GTP, Guanosine triphosphate] | 8.45 g/dL | 9.12 g/dL | 39.9% | 35.74% | 37.96% | 11.7% | 3.03 ppm | 3.98 ppm | 49.2% | 3.0 ng/mL | 9.5% | 698 ng/mL | −5.7% | 4392 ng/mL | −0.2% | 62.2 pg/mL | −0.2% | 
Nc1nc2c(ncn2[C@@H]2O[C@H](COP(=O)([O-])[O-])[C@@H](O)[C@H]2O)c(=O)[nH]1.[Na+].[Na+] [Disodium GMP, Disodium Guanosine 5-Monophosphate] |  |  |  |  |  |  |  |  |  | 3.0 ng/mL | 11.4% | 700 ng/mL | −5.4% | 4303 ng/mL | −2.2% | 62.9 pg/mL | 0.9% | 
Nc1nc2c(ncn2[C@@H]2O[C@H](COP(=O)([O-])[O-])[C@@H](O)[C@H]2O)c(=O)[nH]1.[Na+].[Na+] [Disodiurn GMP] | 8.54 g/dL | 9.18 g/dL | 40.8% | 35.35% | 38.89% | 51.3% | 2.82 ppm | 3.43 ppm | 28.8% |  |  |  |  |  |  |  |  | 
O=S(=O)([O-])[O-].[Fe+2] [FeSO4, ferrous sulphate, reference compound] | 8.71 g/dL | 15.2 g/dL | 134.0% | 35.10% | 47.22% | 83.7% | 2.43 ppm | 9.84 ppm | 269.2% | 3.0 ng/mL | 12.5% | 720 ng/mL | −2.7% | 4260 ng/mL | −3.2% | 60.4 pg/mL | −3.2% | Hb level [1, 8]: significant increment; % Hematocrit level [2, 8]: significant increment; Serum Iron level [3, 8]: significant increase; Ferroportin level [4, 9]: no significant change; Serum Ferritin level [5, 9]: no significant change; Hepcidin level [6, 9]: no significant change; IL-6 level [7, 9]: no significant change
